Results: publication doi:10.1101/2024.08.06.606911v7 (biorxiv, 2025)

Biological target: PTEN (GST-PTEN; Myc-PTEN) (Homo sapiens, UniProt P60484)
Assay: SPR, BIACORE […], PTEN immobilised on CM5 chip
Format: binding

PTEN (GST-PTEN; Myc-PTEN), sequence (P60484 whole entry): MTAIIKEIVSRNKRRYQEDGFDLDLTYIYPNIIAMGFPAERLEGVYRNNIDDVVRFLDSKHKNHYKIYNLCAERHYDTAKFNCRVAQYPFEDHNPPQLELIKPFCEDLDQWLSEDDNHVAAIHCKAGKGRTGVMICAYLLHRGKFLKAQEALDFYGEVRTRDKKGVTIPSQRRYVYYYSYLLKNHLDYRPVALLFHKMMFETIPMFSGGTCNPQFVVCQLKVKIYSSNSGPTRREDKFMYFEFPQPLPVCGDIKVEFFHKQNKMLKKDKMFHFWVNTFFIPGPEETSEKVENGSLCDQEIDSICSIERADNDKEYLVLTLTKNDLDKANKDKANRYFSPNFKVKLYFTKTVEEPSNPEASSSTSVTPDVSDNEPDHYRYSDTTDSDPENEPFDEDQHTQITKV

## C[C@@H]1O[C@@H](O[C@@H]2[C@@H](O)[C@H](OCCc3ccc(O)c(O)c3)O[C@H](CO[C@@H]3O[C@H](CO)[C@@H](O)[C@H](O)[C@H]3O)[C@H]2OC(=O)/C=C/c2ccc(O)c(O)c2)[C@H](O)[C@H](O)[C@H]1O [Echinacoside]
  Kd: 230 µM
